# How the values were obtained:
# JAK-2 enzyme = JAK-2 enzyme (Homo sapiens, UniProt O60674); experiment: JAK2 inhibition assay (radiometric 33P filter assay); format: biochemical; details: 15 μM poly(Glu)4Tyr, 12 μM ATP; read-out: JAK2 inhibition data (Ki)
# Procedure: (§1) Compounds were screened for their ability to inhibit JAK using the assay shown below. Reactions were carried out in a kinase buffer containing 100 mM HEPES (pH 7.4), 1 mM DTT, 10 mM MgCl2, 25 mM NaCl, and 0.01% BSA.
# (§2) Substrate concentrations in the assay were 5 μM ATP (200 uCi/μmole ATP) and 1 μM poly(Glu)4Tyr. Reactions were carried out at 25° C. and 1 nM JAK3.
# (§3) To each well of a 96 well polycarbonate plate was added 1.5 μl of a candidate JAK3 inhibitor along with 50 μl of kinase buffer containing 2 μM poly(Glu)4Tyr and 10 μM ATP. This was then mixed and 50 μl of kinase buffer containing 2 nM JAK3 enzyme was added to start the reaction. After 20 minutes at room temperature (25° C.), the reaction was stopped with 50 μl of 20% trichloroacetic acid (TCA) that also contained 0.4 mM ATP. The entire contents of each well were then transferred to a 96 well glass fiber filter plate using a TomTek Cell Harvester. After washing, 60 μl of scintillation fluid was added and ^33P incorporation detected on a Perkin Elmer TopCount.
# The assays were as described above in Example 25 except that JAK-2 enzyme was used, the final poly(Glu)4Tyr concentration was 15 μM, and final ATP concentration was 12 μM.
# JAK3 = biological target: T1, JAK3 (Homo sapiens, UniProt P52333); experiment: JAK3 inhibition assay (radiometric 33P filter assay); format: biochemical; details: 1 μM poly(Glu)4Tyr, 5 μM ATP, 1 nM JAK3, 25° C.; read-out: JAK3 inhibition data (Ki)
# T1 sequence (P52333 1-1124): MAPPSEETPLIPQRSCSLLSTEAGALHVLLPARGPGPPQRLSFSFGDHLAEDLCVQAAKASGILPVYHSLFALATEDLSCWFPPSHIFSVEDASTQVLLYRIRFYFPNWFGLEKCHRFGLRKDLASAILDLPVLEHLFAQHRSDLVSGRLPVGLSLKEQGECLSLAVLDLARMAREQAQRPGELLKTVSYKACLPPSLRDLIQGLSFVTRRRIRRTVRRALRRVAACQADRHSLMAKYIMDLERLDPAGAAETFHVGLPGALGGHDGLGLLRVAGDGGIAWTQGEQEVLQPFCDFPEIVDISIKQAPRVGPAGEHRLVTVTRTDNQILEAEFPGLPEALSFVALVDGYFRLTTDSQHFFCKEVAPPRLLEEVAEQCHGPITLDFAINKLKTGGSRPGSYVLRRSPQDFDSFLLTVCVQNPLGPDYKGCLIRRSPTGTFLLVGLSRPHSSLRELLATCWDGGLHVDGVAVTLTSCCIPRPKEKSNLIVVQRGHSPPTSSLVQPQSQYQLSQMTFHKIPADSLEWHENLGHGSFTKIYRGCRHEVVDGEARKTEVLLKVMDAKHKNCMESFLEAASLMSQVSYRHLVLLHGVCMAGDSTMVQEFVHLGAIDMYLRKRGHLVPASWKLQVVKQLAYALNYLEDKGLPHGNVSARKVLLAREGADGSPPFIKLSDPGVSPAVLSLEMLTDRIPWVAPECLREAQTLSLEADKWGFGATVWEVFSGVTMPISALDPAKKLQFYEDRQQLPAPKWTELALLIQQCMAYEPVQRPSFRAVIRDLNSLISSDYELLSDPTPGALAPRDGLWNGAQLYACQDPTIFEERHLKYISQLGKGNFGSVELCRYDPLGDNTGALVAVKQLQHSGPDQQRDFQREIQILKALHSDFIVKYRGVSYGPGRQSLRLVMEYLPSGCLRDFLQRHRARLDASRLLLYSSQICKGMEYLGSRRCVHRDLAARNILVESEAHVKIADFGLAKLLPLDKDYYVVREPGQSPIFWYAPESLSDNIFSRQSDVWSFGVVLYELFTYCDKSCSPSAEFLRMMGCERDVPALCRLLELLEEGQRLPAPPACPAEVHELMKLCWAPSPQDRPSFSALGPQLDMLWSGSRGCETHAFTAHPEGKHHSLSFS
# Procedure: as §1, §2, §3
# JAK-2 enzyme, sequence (O60674 whole entry, species assumed): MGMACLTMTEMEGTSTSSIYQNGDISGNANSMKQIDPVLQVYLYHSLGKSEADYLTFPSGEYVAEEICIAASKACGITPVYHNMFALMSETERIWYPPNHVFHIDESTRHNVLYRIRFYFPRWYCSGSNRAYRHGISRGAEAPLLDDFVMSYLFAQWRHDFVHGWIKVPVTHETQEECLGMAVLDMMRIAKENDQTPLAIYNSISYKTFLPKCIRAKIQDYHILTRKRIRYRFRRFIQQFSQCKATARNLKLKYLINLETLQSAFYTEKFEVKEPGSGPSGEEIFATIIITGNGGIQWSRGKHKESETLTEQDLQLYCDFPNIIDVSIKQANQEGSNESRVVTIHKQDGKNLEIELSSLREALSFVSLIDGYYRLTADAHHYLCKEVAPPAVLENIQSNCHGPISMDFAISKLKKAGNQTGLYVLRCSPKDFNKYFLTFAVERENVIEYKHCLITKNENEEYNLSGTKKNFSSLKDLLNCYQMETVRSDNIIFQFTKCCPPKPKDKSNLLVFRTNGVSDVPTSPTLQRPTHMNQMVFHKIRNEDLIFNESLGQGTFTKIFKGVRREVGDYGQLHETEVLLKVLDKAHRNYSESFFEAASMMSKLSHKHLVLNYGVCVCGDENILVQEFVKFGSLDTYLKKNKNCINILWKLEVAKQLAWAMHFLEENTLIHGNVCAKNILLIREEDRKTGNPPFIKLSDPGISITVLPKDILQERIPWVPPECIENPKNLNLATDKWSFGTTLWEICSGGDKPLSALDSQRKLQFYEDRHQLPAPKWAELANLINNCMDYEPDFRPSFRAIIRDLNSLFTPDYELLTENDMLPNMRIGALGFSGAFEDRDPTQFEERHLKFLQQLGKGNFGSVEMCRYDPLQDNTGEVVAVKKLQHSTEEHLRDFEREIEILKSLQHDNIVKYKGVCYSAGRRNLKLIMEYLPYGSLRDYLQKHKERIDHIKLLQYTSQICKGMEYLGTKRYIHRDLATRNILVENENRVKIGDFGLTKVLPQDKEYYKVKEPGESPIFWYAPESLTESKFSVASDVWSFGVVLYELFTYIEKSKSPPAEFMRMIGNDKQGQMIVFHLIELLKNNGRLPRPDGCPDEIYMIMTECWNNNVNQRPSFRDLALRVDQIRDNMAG
SMILES,Ki (JAK-2 enzyme),Ki (JAK3)
COC(=O)N1CCN(c2ccc(Nc3nc(N)n(-c4cc(N5CCCN(C(C)=O)CC5)ncn4)n3)cc2)CC1 [Compound 45],< 50 nM,< 50 nM
CCOC(=O)N1CCN(c2ccc(Nc3nc(N)n(-c4cc(N5CCCN(C(C)=O)CC5)ncn4)n3)cc2)CC1 [Compound 46],< 50 nM,< 50 nM
CCCOC(=O)N1CCN(c2ccc(Nc3nc(N)n(-c4cc(N5CCCN(C(C)=O)CC5)ncn4)n3)cc2)CC1 [Compound 47],< 50 nM,< 50 nM
CC(=O)N1CCCN(c2cc(-n3nc(Nc4ccc(N5CCN(C(=O)OC(C)C)CC5)cc4)nc3N)ncn2)CC1 [Compound 48],< 50 nM,< 50 nM
CC(=O)N1CCCN(c2cc(-n3nc(Nc4ccc(N5CCN(C(=O)OCC(C)(C)C)CC5)cc4)nc3N)ncn2)CC1 [Compound 49],< 50 nM,< 50 nM
CC(=O)N1CCCN(c2cc(-n3nc(Nc4ccc(N5CCN(C(=O)OCC(C)C)CC5)cc4)nc3N)ncn2)CC1 [Compound 50],< 50 nM,< 50 nM
CC(=O)N1CCCN(c2cc(-n3nc(Nc4ccc(N5CCN(C(=O)Oc6ccc(C)cc6)CC5)cc4)nc3N)ncn2)CC1 [Compound 51],< 50 nM,< 50 nM
CC(=O)N1[C@H](C)CN(c2cc(-n3nc(Nc4ccc(N5CCN(C(=O)OC(C)(C)C)CC5)cc4)nc3N)ncn2)C[C@@H]1C [Compound 52],< 50 nM,< 50 nM
COC(=O)N1CCN(c2ccc(Nc3nc(N)n(-c4cc(N5C[C@@H](C)N(C(C)=O)[C@@H](C)C5)ncn4)n3)cc2)CC1 [Compound 53],< 50 nM,< 50 nM
CCOC(=O)N1CCN(c2ccc(Nc3nc(N)n(-c4cc(N5C[C@@H](C)N(C(C)=O)[C@@H](C)C5)ncn4)n3)cc2)CC1 [Compound 54],< 50 nM,< 50 nM
CCCOC(=O)N1CCN(c2ccc(Nc3nc(N)n(-c4cc(N5C[C@@H](C)N(C(C)=O)[C@@H](C)C5)ncn4)n3)cc2)CC1 [Compound 55],< 50 nM,< 50 nM
CC(=O)N1[C@H](C)CN(c2cc(-n3nc(Nc4ccc(N5CCN(C(=O)OC(C)C)CC5)cc4)nc3N)ncn2)C[C@@H]1C [Compound 56],< 50 nM,< 50 nM
CC(=O)N1[C@H](C)CN(c2cc(-n3nc(Nc4ccc(N5CCN(C(=O)OCC(C)(C)C)CC5)cc4)nc3N)ncn2)C[C@@H]1C [Compound 57],< 50 nM,< 50 nM
CC(=O)N1[C@H](C)CN(c2cc(-n3nc(Nc4ccc(N5CCN(C(=O)OCC(C)C)CC5)cc4)nc3N)ncn2)C[C@@H]1C [Compound 58],< 50 nM,< 50 nM
CC(=O)N1[C@H](C)CN(c2cc(-n3nc(Nc4ccc(N5CCNCC5)cc4)nc3N)ncn2)C[C@@H]1C [Compound 59],< 50 nM,< 50 nM
CCNC(=O)N1CCN(c2ccc(Nc3nc(N)n(-c4cc(N5C[C@@H](C)N(C(C)=O)[C@@H](C)C5)ncn4)n3)cc2)CC1 [Compound 60],< 50 nM,< 50 nM
CCCNC(=O)N1CCN(c2ccc(Nc3nc(N)n(-c4cc(N5C[C@@H](C)N(C(C)=O)[C@@H](C)C5)ncn4)n3)cc2)CC1 [Compound 61],< 50 nM,< 50 nM
CC(=O)N1[C@H](C)CN(c2cc(-n3nc(Nc4ccc(N5CCN(C(=O)NC(C)C)CC5)cc4)nc3N)ncn2)C[C@@H]1C [Compound 62],< 50 nM,< 50 nM
CC(=O)N1[C@H](C)CN(c2cc(-n3nc(Nc4ccc(N5CCN(C(=O)NC(C)(C)C)CC5)cc4)nc3N)ncn2)C[C@@H]1C [Compound 63],< 50 nM,< 50 nM
CC(=O)N1[C@H](C)CN(c2cc(-n3nc(Nc4ccc(N5CCN(C(=O)NC6CCCCC6)CC5)cc4)nc3N)ncn2)C[C@@H]1C [Compound 64],< 50 nM,< 50 nM
CCOC(=O)CCNC(=O)N1CCN(c2ccc(Nc3nc(N)n(-c4cc(N5C[C@@H](C)N(C(C)=O)[C@@H](C)C5)ncn4)n3)cc2)CC1 [Compound 65],< 50 nM,< 50 nM

# — patent US7329652B2, “Diaminotriazole compounds useful as protein kinase inhibitors” (Vertex Pharamaceuticals Incorporated, priority 2004, dated 2008)
